Seven compounds from ChEMBL document CHEMBL1158425 (Bioorg Med Chem Lett, 2009) can be followed below.

By IC50 is commonly meant the midpoint of a concentration-inhibition curve. Low readings indicate greater potency, high ones weaker potency.

In assay [1] the test system is A2780. As to the kind of experiment: Growth inhibition of human topotecan-resistant A2780 cells after 72 hrs. It is filed as functional, cell-based. Conditions: A2780, 72 h.
Assay [2] can be described thus: Growth inhibition of human paclitaxel-resistant A2780TC3 cells overexpressing class 3 beta-tubulin after 72 hrs. It is filed as functional, cell-based. To be noted: A2780TC3, 72 h.
In assay [3] the test system is A2780. Description: Resistant factor, IC50 for human paclitaxel-resistant A2780TC3 cells overexpressing class 3 beta-tubulin to IC50 for human wild type A2780 cells. It is filed as functional.
The test system of assay [4] is A2780. As to the kind of experiment: Growth inhibition of human cisplatin-resistant A2780 cells after 72 hrs. In kind it is functional, cell-based. To be noted: A2780, 72 h.
A short description of assay [5]: Growth inhibition of human paclitaxel-resistant A2780TC1 cells overexpressing class 3 beta-tubulin after 72 hrs. Conditions: A2780TC1, 72 h. It is filed as functional, cell-based.
The test system of assay [6] is A2780. Description: Growth inhibition of human wild type A2780 cells after 72 hrs. It is filed as functional, cell-based. Conditions: A2780, 72 h.
Assay [7] in a line: Ratio of IC50 for IDN 5390 to IC50 for paclitaxel against human paclitaxel-resistant A2780TC3 cells overexpressing class 3 beta-tubulin. In kind it is functional.
Assay [8] has as its system A2780. Description: Growth inhibition of human adriamycin and doxorubicin-resistant A2780 cells after 72 hrs. It is filed as functional, cell-based. Conditions: A2780, 72 h.
The nature of assay [9]: Ratio of IC50 for drug to IC50 for paclitaxel against human paclitaxel-resistant A2780TC1 cells overexpressing class 3 beta-tubulin. In kind it is functional.
For assay [10], the system named is A2780. Description: Ratio of IC50 for drug to IC50 for IDN 5390 against human adriamycin and doxorubicin-resistant A2780 cells. In kind it is functional.
Assay [11] relates to A2780. As to the kind of experiment: Ratio of IC50 for drug to IC50 for paclitaxel against human adriamycin and doxorubicin-resistant A2780 cells. In kind it is functional.
Assay [12] in a line: Ratio of IC50 for drug to IC50 for paclitaxel against human paclitaxel-resistant A2780TC3 cells overexpressing class 3 beta-tubulin. In kind it is functional.
Assay [13] is described as follows: Ratio of IC50 for drug to IC50 for IDN 5390 against human paclitaxel-resistant A2780TC3 cells overexpressing class 3 beta-tubulin. It is filed as functional.
The test system of assay [14] is A2780. As to the kind of experiment: Resistant factor, IC50 for human paclitaxel-resistant A2780TC1 cells overexpressing class 3 beta-tubulin to IC50 for human wild type A2780 cells. In kind it is functional, cell-based.

On to `CC(=O)O[C@@]1([C@@H]2/C(C)=C(/O)C(=O)C3=C(C)[C@@H](OC(=O)[C@H](O)[C@H](CC(C)C)NC(=O)OC(C)(C)C)C[C@@](O)([C@H]2OC(=O)c2ccccc2)C3(C)C)CO[C@@H]1CCO`, for which the IC50 was found to be 27.5 nM in assay [1]; 2240 nM in assay [2]; 16.8 nM in assay [4]; 2060 nM in [5]; 17.4 nM in assay [6]; 2620 nM in assay [8]. The “Ratio IC50” value in assay [3] stood at 129; in assay [7] it was 8.
Take `COc1cccc(C(=O)O[C@H]2[C@H]([C@]3(OC(C)=O)CO[C@@H]3CCO)/C(C)=C(/O)C(=O)C3=C(C)[C@@H](OC(=O)[C@H](O)[C@H](C=C(C)C)NC(=O)OC(C)(C)C)C[C@]2(O)C3(C)C)c1`: the “Ratio IC50” value in [9] is reported as 2.3; in assay [10] it was 4.3; in [11], 2.1; in assay [12], 24; in [13], 3. Moreover, the IC50 in assay [1] was determined as 2.6 nM; in assay [2] it was 490 nM; in assay [4], 5.7 nM; in assay [5] it was 1060 nM; in assay [6], 4.6 nM; in assay [8], 386 nM.
On to `COc1cccc(C(=O)O[C@H]2[C@H]([C@]3(OC(C)=O)CO[C@@H]3CCO)/C(C)=C(/O)C(=O)C3=C(C)[C@@H](OC(=O)[C@H](O)[C@H](CC(C)C)NC(=O)OC(C)(C)C)C[C@]2(O)C3(C)C)c1`, for which the “Ratio IC50” value in assay [9] amounted to 2.3; in [10], 4.3; in assay [11] it was 2.1; in assay [12], 24; in assay [3], 31; in [13], 3. Further, the IC50 came to 3.5 nM in assay [1]; 211 nM in assay [2]; 4.3 nM in [4]; 1120 nM in assay [5]; 6.8 nM in assay [6]; 356 nM in assay [8].
Take `CC(=O)O[C@@]1([C@@H]2/C(C)=C(/O)C(=O)C3=C(C)[C@@H](OC(=O)[C@H](O)[C@H](CC(C)C)NC(=O)OC(C)(C)C)C[C@@](O)([C@H]2OC(=O)c2cccc(Cl)c2)C3(C)C)CO[C@@H]1CCO`: the “Ratio IC50” value in [9] is 2.3; in assay [10], 4.3; in assay [11], 2.1; in [12], 24; in assay [13] it was 3. Also, the IC50 in assay [1] worked out at 4.6 nM; in assay [2] it was 385 nM; in assay [4], 4.1 nM; in assay [5], 1800 nM; in assay [6] it was 5.5 nM; in assay [8], 604 nM.
On to `CC(=O)O[C@@]1([C@@H]2/C(C)=C(/O)C(=O)C3=C(C)[C@@H](OC(=O)[C@H](O)[C@H](C=C(C)C)NC(=O)OC(C)(C)C)C[C@@](O)([C@H]2OC(=O)c2cccc(Cl)c2)C3(C)C)CO[C@@H]1CCO`, for which the “Ratio IC50” value in [9] amounted to 2.3; in [10], 4.3; in assay [11], 2.1; in assay [12], 24; in assay [14], 163; in [13], 3. Moreover, the IC50 in [1] was 1.7 nM; in assay [2], 357 nM; in assay [4], 4 nM; in assay [5], 751 nM; in [6] it was 4.6 nM; in assay [8] it was 452 nM.
For the compound `CC(=O)O[C@@]1([C@@H]2/C(C)=C(/O)C(=O)C3=C(C)[C@@H](OC(=O)[C@H](O)[C@H](CC(C)C)NC(=O)OC(C)(C)C)C[C@@](O)([C@H]2OC(=O)c2cccc(F)c2)C3(C)C)CO[C@@H]1CCO`, the “Ratio IC50” value is 2.3 in assay [9], 24 in assay [12] and 3 in assay [13]. Also, the IC50 came to 12.8 nM in [1]; 460 nM in [2]; 11.8 nM in [4]; 1500 nM in [5]; 11.1 nM in assay [6]; 3730 nM in [8].
With `CC(=O)O[C@@]1([C@@H]2/C(C)=C(/O)C(=O)C3=C(C)[C@@H](OC(=O)[C@H](O)[C@H](C=C(C)C)NC(=O)OC(C)(C)C)C[C@@](O)([C@H]2OC(=O)c2cccc(F)c2)C3(C)C)CO[C@@H]1CCO`, the “Ratio IC50” value in [12] came to 24; in assay [13] it was 3. The compound also registered an IC50 in assay [8] of 2220 nM.
